The source of these data is patent publication US20220387457A1 (Qlaris Bio, Inc., priority 2020, published 2022).

The structures appear in SMILES notation.

Series [1] deals with African green monkeys (systemic blood pressure). Put plainly: Systemic blood pressure in African green monkeys during 7-day topical CKLP1. The class given is in vivo, African green monkey. The following applies: 10 mM CKLP1, 7 days. How it is done:
(§1) To further validate the IOP lowering effects of CKLP1 in large animal models, one eye of five African green monkeys was treated with topical ocular administration of 10 mM CKLP1, while the contralateral eye received vehicle (PBS). Baseline IOP in control and treated eyes were 20.1±1.8 mmHg and 21.9±2.5 mmHg, respectively.
(§2) For treatment days, 10 mM CKLP1 (dissolved in PBS) was added to one eye of each monkey in a 50 μl topical ocular administration, once daily, for 7 consecutive days, while the contralateral eye received a 50 μl ocular administration of vehicle (PBS).

Series [2] deals with T1, placenta-derived human alkaline phosphatase (Homo sapiens, UniProt P05187).
T1 construct: varying concentrations of placenta-derived human alkaline phosphatase; from tissue; host or cells: human placenta
T1 sequence (P05187 23-506): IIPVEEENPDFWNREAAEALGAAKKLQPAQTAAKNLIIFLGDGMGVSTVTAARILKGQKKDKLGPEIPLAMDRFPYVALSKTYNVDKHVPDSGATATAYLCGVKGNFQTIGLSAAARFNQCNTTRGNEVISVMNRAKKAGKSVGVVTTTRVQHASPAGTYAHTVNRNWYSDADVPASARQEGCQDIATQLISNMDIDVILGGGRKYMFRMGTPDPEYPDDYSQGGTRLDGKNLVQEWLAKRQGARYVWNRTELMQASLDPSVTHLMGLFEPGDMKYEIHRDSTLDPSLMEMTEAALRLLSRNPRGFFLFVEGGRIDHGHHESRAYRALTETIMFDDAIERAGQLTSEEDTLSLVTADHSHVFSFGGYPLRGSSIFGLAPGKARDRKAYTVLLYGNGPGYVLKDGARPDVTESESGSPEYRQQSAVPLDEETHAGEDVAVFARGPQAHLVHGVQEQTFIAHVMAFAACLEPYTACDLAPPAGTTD
Kind of series: Dose- and time-dependent conversion of CKLP1 to levcromakalim by placenta-derived human alkaline phosphatase, pH 10. In kind it is biochemical. How it is done:
To activate CKLP1, the phosphate is hydrolyzed from phosphatases to produce leveromakalim, the active moiety that can open (activate) ATP-sensitive potassium channels.
In the first experiment, a fixed concentration of CKLP1 solution was incubated with varying concentrations of placenta-derived human alkaline phosphatase. To accomplish this, placenta-derived human alkaline phosphatase (0.0002 U) in a 100-μL volume was added to each of thirteen 1.5-mL tubes. To each tube, CKLP1 was then added at a fixed concentration [10 mM (0.4%)]. Tubes were inverted twice and incubated in a water bath at 37° C. At each of 13 different time points (0, 1, 2.5, 5, 15, and 30 minutes and at 1, 2, 4, 8, 24, 48, and 72 hours), a single tube was removed, and the reaction was stopped by the addition of 2 volumes (200 μL) of acetonitrile. Samples were stored at −80° C. The experiment was repeated with 10 mM CKLP1 (0.4%) in the presence of placenta-derived human alkaline phosphatase at concentrations of 0.002 U, 0.02 U, and 0.2 U. All assays were performed at pH 10.
In a second experiment, a fixed concentration of placenta-derived human alkaline phosphatase was incubated with varying concentrations of CKLP1. To accomplish this, a fixed concentration of 0.02 U of placenta-derived human alkaline phosphatase in a 100-μL volume was added to each of thirteen 1.5-mL tubes. To each tube, CKLP1 was then added [0.01 mM (0.0004%)]. Tubes were inverted twice and incubated in a water bath at 37° C. At each of 13 different time points (0, 1, 2.5, 5, 15, and 30 minutes and at 1, 2, 4, 8, 24, 48, and 72 hours), a single tube was removed and the reaction was stopped by the addition of 2 volumes (200 μL) of acetonitrile. Samples were stored at −80° C. The experiment was repeated with the same concentration of placenta-derived human alkaline phosphatase (0.02 U) and various concentrations of CKLP1 [0.1 mM (0.004%), 1 mM (0.04%), 10 mM (0.4%), 20 mM (0.8%), and 40 mM (1.6%)]. All assays were performed at pH 10.

Series [3] deals with beagle dogs. Kind of series: Safety findings, 28-day topical ophthalmic dosing in beagle dogs. In kind it is in vivo, beagle dog. How it is done: In the study, dogs (3 males and 3 females) received bilateral daily topical administration of 40 μL/eye of 2.0%, 4.0%, or 8.0% as measured in mg/mL (equivalent to 0.8, 1.6, or 3.2 mg CKLP1 per eye) of CKLP1 in phosphate buffered saline. Based on an average male dog weight of 7.9 kg at the start of the study, these doses were equivalent to 0.20 mg/kg, 0.41 mg/kg, or 0.81 mg/kg and based on an average female dog weight of 6.0 kg at the start of the study, these doses were equivalent to 0.27 mg/kg, 0.53 mg/kg, or 1.07 mg/kg. Blood was collected for toxicokinetic analysis pre-dose and at 1, 2, 4, 8, 12, and 24 hours post dosing on days 1 and 28. In addition, 2 animals of each gender were allowed 336 hours (14 days) of recovery time following the final dose, at which point final blood samples were obtained.

Series [4] deals with African green monkeys (IOP). Kind of series: Effect of CKLP1 on IOP in African green monkeys. The class given is in vivo, African green monkey. The method, then: as §1, §2
Setting [5] is: 10 mM CKLP1 topical once daily, 7 days.

For `CC1(C)Oc2ccc(C#N)cc2[C@@H](N2CCCC2=O)[C@@H]1OP(=O)(O)O` [CKLP1], in series [1] (baseline 68.1±6.0, p=0.13), the “diastolic pressure following treatment” value was 76.0±8.2 mmHg. Besides, the “systolic pressure after treatment” value in series [1] (baseline 118.7±12.0, p=0.6) is recorded as 121.1±7.3 mmHg. In addition, the “conversion rate of CKLP1 to levcromakalim at 24 hours” value in series [2] (ALP 0.02 U/100 μL, CKLP1 0.01 mM) turned out to be 26.9%; in series [2] (ALP 0.02 U/100 μL, CKLP1 0.1 mM), 20.0%; in series [2] (ALP 0.02 U/100 μL, CKLP1 1 mM), 5.2%; in series [2] (ALP 0.02 U/100 μL, CKLP1 10 mM) it was 4.9%; in series [2] (ALP 0.02 U/100 μL, CKLP1 20 mM), 3.2%; in series [2] (ALP 0.02 U/100 μL, CKLP1 40 mM), 1.7%. Further, the “conversion rate of CKLP1 to levcromakalim at 24 hours” value in series [2] (CKLP1 10 mM, ALP 0.0002 U/100 μL) is reported as 0.4%; in series [2] (CKLP1 10 mM, ALP 0.002 U/100 μL) it was 1.3%; in series [2] (CKLP1 10 mM, ALP 0.02 U/100 μL), 4.8%; in series [2] (CKLP1 10 mM, ALP 0.2 U/100 μL), 13.7%. Further, in series [2] (CKLP1 fixed 10 mM (0.4%), ALP 0.0002-0.2 U/100 μL, up to 72 hours, pH 10, 37° C.), the “conversion of CKLP1 to levcromakalim, maximum” value is given as at most 21%. In series [3] (3.2 mg/eye/dose (8%)), the non-adverse ocular effects result is on record as “slight to moderate redness (congestion)”. In addition, the “microscopic findings, lacrimal gland” value in series [3] (2 females at 3.2 mg/eye/dose (8%)) is reported as “mild lacrimal gland acinar atrophy”. The “reversibility of ocular findings” value in series [3] (14-day recovery period) is on record as “all ocular findings were fully recovered”. Moreover, the “microscopic findings, corneal epithelium” value in series [3] (males at ≥1.6 mg/eye/dose (4%) and 1 female at 3.2 mg/eye/dose (8%)) was “mild increased mitoses in the corneal epithelium”. The “no-observed-adverse-effect level (NOAEL)” value in series [3] (topical, 28 days, % as measured in mg/mL) is reported as 8.0%. Also, in series [4] (setting [5]), the “IOP reduction compared to baseline” value was 3.8±1.8 mmHg. In addition, the “change in IOP” value in series [4] (setting [5]) is reported as 16.7±6.7%. In series [4] (African green monkeys), the “IOP lowered by (summary)” value is given as “approximately 17%”.
